{"source": "patent US6403627B1", "about": "“Spin trapping pharmaceutical compositions and methods for use thereof” (Oklahoma Medical Research Foundation, priority 1991, dated 2002)", "key": {"[1]": {"test_system": "free radicals produced by adriamycin in heart, brain and other organs", "settings": "brain and other organs of research animals; cited from earlier work"}, "[2]": {"test_system": "oxidation of low density lipoprotein in plasma", "assay": "Oxidation of lipid in plasma/LDL samples measured as thiobarbituric acid reactive substance (TBAR)", "format": "biochemical", "settings": "for % inhibition / Test (TBAR): 0.1 mM PBN, 4° C. for seven weeks; for % inhibition: actual inhibition greater than measured (assay interference by PBN)", "protocol": "Diabetic atherosclerosis involves the abnormal and excessive glycation of protein in the vascular wall. As discussed above for diabetic neuropathy, this involves oxygen radical production and consequent further damage to cytosolic proteins. Spin-trapping compounds will prevent this abnormal processing of cellular protein and other cellular constituents. […] Plasma samples were tested for oxidation of lipid measured using thiobarbioturic acid reactive substance (TBAR, nM) and % inhibition of oxidation calculated."}, "[3]": {"test_system": "protein oxidation and enzyme activity in aged cells/brain", "settings": "as early as seven days following initiation of daily treatment; cited from earlier work"}, "[4]": {"test_system": "protein oxidation and enzyme activity in aged cells/brain", "assay": "Age-related protein oxidation and enzyme activity after daily administration", "format": "in vivo", "settings": "aging; daily administration for fourteen days", "text": "The consequence of this increased level of protein oxidation is an abnormally low level of critical enzymes in the affected cells. While not all cells have been evaluated, it appears from the in vivo data presented in U.S. Ser. No. 07/589,177abandoned on Mar. 5, 1993, and U.S. Ser. No. 07/422,651, now U.S. Pat. No. 5,025,032, and reports of in vitro studies, that most, if not all, cells in the body will undergo abnormally high levels of protein oxidation. Decreases in antioxidant systems and abnormally low levels of mitochondrial function have been described. The protein oxidation is thought to arise from oxygen free radicals, largely generated via a metal catalyzed reaction within the cell. […] Organs for transplantation are obtained from donors. The success of the procedure is determined in part by the age (oxidation) related reduction in organ viability, the amount of time the organ is in preservation solution, and the status of the recipient."}, "Toxicity tests (LD50)": {"assay": "Toxicity tests (LD50)", "format": "in vivo", "protocol": "Exemplary dosages of the parent phenyl t-butyl nitrone administered intravenously range from 0.1 to 10 mg/kg of body weight in animals. […] It is possible to extrapolate from comparative tests using other spin trapping compounds what the effective dosage for these compounds will be."}}}
{"smiles": "CC(C)(C)[N+]([O-])=Cc1ccccc1", "note": "[PBN, phenyl N-tert-butylnitrone]", "values": [{"measurement": "trapping of free radicals produced by adriamycin", "setting": "[1]", "result": "trap the free radicals produced by adriamycin"}, {"measurement": "% inhibition", "setting": "[2]; NP132 plasma", "result": 18.2, "unit": "%"}, {"measurement": "Test (TBAR)", "setting": "[2]; NP132 plasma, control + PBS 0.55", "result": 0.45, "unit": "nM/ml"}, {"measurement": "% inhibition", "setting": "[2]; NP133 LDL", "result": 48.1, "unit": "%"}, {"measurement": "Test (TBAR)", "setting": "[2]; NP133 LDL, control + PBS 0.54", "result": 0.28, "unit": "nM/ml"}, {"measurement": "% inhibition", "setting": "[2]; NP134 plasma", "result": 22.2, "unit": "%"}, {"measurement": "Test (TBAR)", "setting": "[2]; NP134 plasma, control + PBS 0.18", "result": 0.14, "unit": "nM/ml"}, {"measurement": "% inhibition", "setting": "[2]; NP135 LDL", "result": 66.7, "unit": "%"}, {"measurement": "Test (TBAR)", "setting": "[2]; NP135 LDL, control + PBS 0.33", "result": 0.11, "unit": "nM/ml"}, {"measurement": "% inhibition", "setting": "[2]; NP135 plasma", "result": 21.9, "unit": "%"}, {"measurement": "Test (TBAR)", "setting": "[2]; NP135 plasma, control + PBS 0.32", "result": 0.25, "unit": "nM/ml"}, {"measurement": "oxidation of low density lipoprotein in plasma", "setting": "[2]; in vitro studies", "result": "inhibits or reduces oxidation of low density lipoprotein in plasma"}, {"measurement": "enzymatic status of the aged brain", "setting": "[3]", "result": "restoring enzymatic levels to near those of the young adult"}, {"measurement": "abnormally low level of enzyme activity", "setting": "[4]", "result": "restored to normal"}, {"measurement": "level of protein oxidation", "setting": "[4]", "result": "decreased"}, {"measurement": "LD50", "setting": "Toxicity tests (LD50)", "result": "not possible to determine an LD50"}, {"measurement": "toxicity", "setting": "Toxicity tests (LD50)", "result": "completely innocuous"}]}
